Reference: ChEMBL document CHEMBL4706766, “Novel Bromodomain BRD4 Inhibitors for Treating Cancer” (ACS Med Chem Lett, 2021)

What was measured:
[1] = target: T1, Bromodomain-containing protein 4 (Homo sapiens, UniProt O60885); test: Binding affinity to His-6 tagged BRD4 BD1 bromodomain (unknown origin) incubated for 10 mins by TR-FRET assay
[2] = target: T1, Bromodomain-containing protein 4; test: Binding affinity to His-6 tagged BRD4 BD2 bromodomain (unknown origin) incubated for 10 mins by TR-FRET assay

`COC(=O)c1cc2c(cc1CS(C)(=O)=O)-c1cn(C)c(=O)c3[nH]cc(c13)CN2c1ncc(C#CCN)cc1F` was tested, and the IC50 [1] was 3.3 nM and the IC50 [2] was 3.7 nM.
